# Laboratory results from publication PMC3985611 (Chemistry & biology, 2013).
# Molecular target: Hsp70 (Homo sapiens, UniProt P0DMV8)
# Assay: competition of YK5-biotin pull-down in cancer cells
# Format: cell-based
# Chain of Hsp70 (P0DMV8 2-641): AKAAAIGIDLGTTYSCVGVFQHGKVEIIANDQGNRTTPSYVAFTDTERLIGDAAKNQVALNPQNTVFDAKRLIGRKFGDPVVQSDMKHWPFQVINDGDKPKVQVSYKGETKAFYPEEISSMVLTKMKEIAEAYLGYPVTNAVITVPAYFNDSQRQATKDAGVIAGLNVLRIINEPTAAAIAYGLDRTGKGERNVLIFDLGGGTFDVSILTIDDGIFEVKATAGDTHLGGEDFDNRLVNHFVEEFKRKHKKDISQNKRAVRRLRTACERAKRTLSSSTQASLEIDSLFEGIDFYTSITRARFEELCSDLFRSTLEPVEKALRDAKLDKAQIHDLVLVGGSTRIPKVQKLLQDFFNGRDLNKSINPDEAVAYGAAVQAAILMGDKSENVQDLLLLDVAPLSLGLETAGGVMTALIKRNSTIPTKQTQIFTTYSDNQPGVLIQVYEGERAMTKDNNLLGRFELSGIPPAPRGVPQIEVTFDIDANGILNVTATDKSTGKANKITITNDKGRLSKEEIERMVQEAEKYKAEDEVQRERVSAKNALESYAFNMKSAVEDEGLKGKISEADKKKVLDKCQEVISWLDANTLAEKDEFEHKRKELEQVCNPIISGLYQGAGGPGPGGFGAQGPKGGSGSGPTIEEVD
smiles,measurement,value
C=CC(=O)Nc1cc(N)nc(Sc2c(OC)nc(N3CCN(C)CC3)nc2OC)n1 [YK5],IC50,~7 µM
